Experimental data: US20210403864A1, “METHODS AND COMPOSITIONS FOR TREATING ACTIVATED G-ALPHA Q MUTANT CANCERS OR MELANOCYTIC MALIGNANCIES” (Memorial Sloan Kettering Cancer Center, priority 2018, published 2021)

How the values were obtained:
[1] = tested on: BRAF^V600E-expressing melan-a cells; test: TPA-independent cell growth, CellTiter-glo 2.0; format: cell-based, mouse; details: 5 days, without TPA
Description: (§1) Data are expressed as the percentage relative light units (RLU) relative to that observed with vehicle. Error bars, s.e.m. from triplicate samples.
(§2) Cell Culture and in vitro analysis. Mutation dependent melan-a cells were generated by transducing cells with cDNAs in MSCV-PURO (retrovirus) and then selecting cells with puromycin (1 μg/ml) for two days. TPA (Sigma-Aldrich, St. Louis, Mo.) was then withdrawn from cultures. Cells with activating mutations (CYSLTR2^L129Q, GNAQ^G48V/R183Q/Q209L, KRAS^G12V, and BRAF^V600E) continued to proliferate over several passages (>2 weeks) and were then validated with qRT-PCR and immunoblots. Vector and WT controls were unable to maintain proliferation after a couple passages upon TPA withdrawal. All cells were cultured in media containing 10% FBS, L-glutamine ([…]), penicillin (100 U/ml), streptomycin (100 μg/ml). Melan-a cells provided by D. Bennett, St. George's Hospital, University of London (Johnson C P, et al., PLoS One. 12(6):1-17 (2017)), were cultured in RPMI supplemented with 200 nM TPA unless otherwise noted. HEK293T (from ATCC, Manassas, Va.) cells were cultured in DMEM-Q and UVM cells were cultured in RPMI. All cells tested negative for mycoplasma. Cell growth assays and YM dose response curves were assayed using CellTiter-glo 2.0 (Promega, Madison, Wis.) at given time points or after five days of incubation with YM and readout on a Glomax Luminometer (Promega, Madison, Wis.). IC50 values were calculated using Prism 7.0 software. Growth assays were compared to day 1 readings and dose response curves were compared to vehicle. Data shown is representative of at least three independent experiments with at least three technical replicates. Dose-response curves and growth assays were analyzed using GraphPad Prism 7.0 software.

[2] = tested on: GNAQ^G48V-expressing melan-a cells; test: TPA-independent cell growth, CellTiter-glo 2.0; format: cell-based, mouse; details: 5 days, without TPA
Description: as §1, §2

[3] = tested on: GNAQ^R183Q-expressing melan-a cells; test: TPA-independent cell growth, CellTiter-glo 2.0; format: cell-based, mouse; details: 5 days, without TPA
Description: as §1, §2

[4] = tested on: KRAS^G12V-expressing melan-a cells; test: TPA-independent cell growth, CellTiter-glo 2.0; format: cell-based, mouse; details: 5 days, without TPA
Description: as §1, §2

[5] = tested on: PKC and MAPK signaling (pRASGRP3, p-CRAF, p-MEK1/2, p-ERK1/2), cyclin D1 protein; test: Western blot of downstream UVM signaling in UVM cells and A375 cells; format: cell-based, human; details: for inhibition of PKC and MAPK signaling and cyclin D1 protein / inhibition of MAPK targets (p-CRAF, p-MEK1/2, p-ERK1/2) / change in pRASGRP3: 500 nM YM; for inhibition of MAPK targets (p-CRAF, p-MEK1/2, p-ERK1/2): 2 hours
Description: Immunoblotting. Lysates were harvested using SDS lysis buffer (50 mM Tris-HCL, pH 6.8, 1 mM EDTA, 150 mM NaCl, 1% SDS, […]) supplemented with fresh proteinase and phosphatase inhibitors (PhosSTOP, Roche, Basel, Switzerland; Complete EDTA-Free, Roche, Basel, Switzerland) and 1% PMSF (Sigma-Aldrich, St. Louis, Mo.). Lysates were incubated on ice for 30 minutes, sonicated for 15 minutes, and then centrifuged at max speed for 10 minutes at 4° C. Protein levels were quantified using BCA protein assay (Thermo Scientific, Waltham, Mass.). NuPAGE LDS Sample Buffer (4×) was added to a final concentration of 1×. Samples were run on NuPAGE Novex 4-12% Bis-Tris protein gels (Life Technologies, Carlsbad, Calif.), transferred electrophoretically to 0.45 μm PVDF membranes (Immobilon, EMD Millipore, Burlington, Mass.), and then blocked with StartingBlock blocking buffer (Thermo Scientific, Waltham, Mass.) for 1 hour at room temperature. Primary antibodies were incubated at 4° C. overnight in StartingBlock buffer at 1:1,000 dilution, unless noted otherwise. Primary Antibodies used in the experiments described herein are provided below:
Given the unexpected sensitivity of GNAQ^Q209L mutation to YM in the melan-a system, the effect of YM on three human UVM cell lines that harbored the GNAQ^Q209L/P mutation was evaluated, using the BRAF^V600E mutant A375 cutaneous melanoma cell line as a negative control.

For YM-254890, the “sensitivity of TPA-independent cell growth to YM” value (from here on “sensitivity”) [1] was “completely resistant”, the “sensitivity” value [2] was “sub-nanomolar sensitivity” and the “sensitivity” value [3] was “modestly less sensitive”. The “sensitivity” value [4] was “completely resistant”, the “inhibition of PKC and MAPK signaling and cyclin D1 protein” value ([5]; A375 cells (negative control)) was “not in A375 cells” and the p-ERK1/2 level ([5]; Mel202 cells, 24 hours) was “rebound”. The “inhibition of pRASGRP3” value ([5]; Mel202 cells, earlier time points, in contrast to Mel270 and OMM1.3) was “greater inhibition”, the “inhibition of MAPK targets” value ([5]; Mel202 cells, in contrast to Mel270 and OMM1.3) was “decreased inhibition” and the “inhibition of MAPK targets (p-CRAF, p-MEK1/2, p-ERK1/2)” value ([5]; Mel270 cells) was “significant inhibition”. For the same substance, the “change in pRASGRP3” value ([5]; Mel270 cells, 24 hours) was “small decreases”, the “inhibition of MAPK targets (p-CRAF, p-MEK1/2, p-ERK1/2)” value ([5]; OMM1.3 cells) was “significant inhibition” and the “change in pRASGRP3” value ([5]; OMM1.3 cells, 24 hours) was “small decreases”. The “inhibition of PKC and MAPK signaling and cyclin D1 protein” value ([5]; UVM cells) was “inhibited”.
